Experimental data published in patent US10604526B2, “Chemokine receptor modulators and uses thereof” (RAPT THERAPEUTICS, INC., priority 2016, dated 2020).
Each block holds one molecule with its values, some of them ahead of it.

Molecular target: T1, hCCR4 (Homo sapiens, UniProt P51679)
T1 sequence (P51679 1-360): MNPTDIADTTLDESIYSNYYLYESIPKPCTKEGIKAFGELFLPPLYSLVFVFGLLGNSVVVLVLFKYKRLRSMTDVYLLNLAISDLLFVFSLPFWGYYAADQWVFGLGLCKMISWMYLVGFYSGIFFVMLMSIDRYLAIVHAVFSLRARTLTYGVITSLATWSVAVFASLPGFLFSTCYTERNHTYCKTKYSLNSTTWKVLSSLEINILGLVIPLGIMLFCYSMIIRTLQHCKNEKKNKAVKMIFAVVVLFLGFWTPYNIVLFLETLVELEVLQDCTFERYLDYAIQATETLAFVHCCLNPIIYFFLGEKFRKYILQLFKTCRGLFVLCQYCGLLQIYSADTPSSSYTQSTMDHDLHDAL
Test: Calcium flux assay
Type: cell-based
Conditions: Chem5-hCCR4 cells, CCL22 at EC80 of 1.5 nM, FLIPR Calcium 6 dye; read-out: Potency (IC50)
Outline: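 Chem5 cells expressing hCCR4 were serum-starved for 2 h, loaded with Calcium 6 dye plus 2.5 mM probenecid, then given compound for 1 h at 37 °C (0.5% DMSO). CCL22 was added from a 7.5 nM working solution (5× EC80 of 1.5 nM). IC50 came from ΔF/Fmin (485/525 nm) by 4-parameter fit.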

Molecule: CCOC(=O)CN1CCCC(C2CN(c3cnc4c(C)nn([C@H](C)c5ccc(Cl)cc5Cl)c4n3)C2)C1 (mixture of isomers) [Example 1, Ethyl 2-((R)-3-(1-(1-((R)-1-(2,4-dichlorophenyl)ethyl)-3-methyl-1H-pyrazolo[3,4-b]pyrazin-6-yl)azetidin-3-yl)piperidin-1-yl)acetate 2,2,2-trifluoroacetate and 2,2,2-trifluoroacetate ethyl 2-((S)-3-(1-(1-((R)-1-(2,4-dichlorophenyl)ethyl)-3-methyl-1H-pyrazolo[3,4-b]pyrazin-6-yl)azetidin-3-yl)piperidin-1-yl)acetate]
- IC50: > 500 nM

Molecule: CC(C)S(=O)(=O)NCCN1CCCC(C2CN(c3cnc4c(C(F)(F)F)nn([C@H](C)c5ccc(Cl)cc5Cl)c4n3)C2)C1 (mixture of isomers) [Example 47, N-(2-((R)-3-(1-(1-((R)-1-(2,4-Dichlorophenyl)ethyl)-3-(trifluoromethyl)-1H-pyrazolo[3,4-b]pyrazin-6-yl)azetidin-3-yl)piperidin-1-yl)ethyl)propane-2-sulfonamide and N-(2-((S)-3-(1-(1-((R)-1-(2,4-dichlorophenyl)ethyl)-3-(trifluoromethyl)-1H-pyrazolo[3,4-b]pyrazin-6-yl)azetidin-3-yl)piperidin-1-yl)ethyl)propane-2-sulfonamide]
- IC50: < 100 nM

Molecule: 1-((R)-1-(2,4-dichlorophenyl)ethyl)-6-(3-((S)-1-((R)-4-hydroxybutan-2-yl)piperidin-3-yl)azetidin-1-yl)-1H-pyrazolo[3,4-b]pyrazine-3-carbonitrile and 1-((R)-1-(2,4-dichlorophenyl)ethyl)-6-(3-((S)-1-((S)-4-hydroxybutan-2-yl)piperidin-3-yl)azetidin-1-yl)-1H-pyrazolo[3,4-b]pyrazine-3-carbonitrile [Example 83]
- IC50: 100 to 500 nM

Molecule: Cc1nn([C@H](C)c2ccc(Cl)cc2Cl)c2nc(N3CC([C@@H]4CCCN(CC(=O)O)C4)C3)cnc12 (single isomer, unassigned) [Example 2]
- IC50: > 500 nM

Molecule: C[C@H](c1ccc(Cl)cc1Cl)n1nc(C(F)(F)F)c2ncc(N3CC([C@H]4CCCN(CCO)C4)C3)nc21 (single isomer, unassigned) [Example 43]
- IC50: < 100 nM

Molecule: Cc1nn([C@H](C)c2ccc(Cl)cc2Cl)c2nc(N3CC(C4CCCN(CCC(=O)O)C4)C3)cnc12 (mixture of isomers) [Example 7, 3-((S)-3-(1-(1-((R)-1-(2,4-Dichlorophenyl)ethyl)-3-methyl-1H-pyrazolo[3,4-b]pyrazin-6-yl)azetidin-3-yl)piperidin-1-yl)propanoic acid and 3-((R)-3-(1-(1-((R)-1-(2,4-dichlorophenyl)ethyl)-3-methyl-1H-pyrazolo[3,4-b]pyrazin-6-yl)azetidin-3-yl)piperidin-1-yl)propanoic acid]
- IC50: 100 to 500 nM

Molecule: C[C@H](c1ccc(Cl)cc1Cl)n1nc(C#N)c2ncc(N3CC(C4CCCN(CCC(N)=O)C4)C3)nc21 (mixture of isomers) [Example 24, 3-((S)-3-(1-(3-Cyano-1-((R)-1-(2,4-dichlorophenyl)ethyl)-1H-pyrazolo[3,4-b]pyrazin-6-yl)azetidin-3-yl)piperidin-1-yl)propanamide and 3-((R)-3-(1-(3-cyano-1-((R)-1-(2,4-dichlorophenyl)ethyl)-1H-pyrazolo[3,4-b]pyrazin-6-yl)azetidin-3-yl)piperidin-1-yl)propanamide]
- IC50: < 100 nM

Molecule: Cc1nn([C@H](C)c2ccc(Cl)cc2Cl)c2nc(N3CC([C@H]4CCCN(CCC(N)=O)C4)C3)cnc12 (single isomer, unassigned) [Example 13]
- IC50: < 100 nM

Molecule: C[C@H](c1ccc(Cl)cc1Cl)n1nc(C(F)(F)F)c2ncc(N3CC(C4CCCN(CCO)C4)C3)nc21 (mixture of isomers) [Example 42, 2-((R)-3-(1-(1-((R)-1-(2,4-Dichlorophenyl)ethyl)-3-(trifluoromethyl)-1H-pyrazolo[3,4-b]pyrazin-6-yl)azetidin-3-yl)piperidin-1-yl)ethan-1-ol and 2-((S)-3-(1-(1-((R)-1-(2,4-dichlorophenyl)ethyl)-3-(trifluoromethyl)-1H-pyrazolo[3,4-b]pyrazin-6-yl)azetidin-3-yl)piperidin-1-yl)ethan-1-ol]
- IC50: 100 to 500 nM

Molecule: Cc1nn([C@H](C)c2ccc(Cl)cc2Cl)c2nc(N3CC(C4CCCN(CCO)C4)C3)cnc12 (mixture of isomers) [Example 40, 2-((S)-3-(1-(1-((R)-1-(2,4-Dichlorophenyl)ethyl)-3-methyl-1H-pyrazolo[3,4-b]pyrazin-6-yl)azetidin-3-yl)piperidin-1-yl)ethan-1-ol and 2-((R)-3-(1-(1-((R)-1-(2,4-dichlorophenyl)ethyl)-3-methyl-1H-pyrazolo[3,4-b]pyrazin-6-yl)azetidin-3-yl)piperidin-1-yl)ethan-1-ol]
- IC50: < 100 nM

Molecule: C[C@H](c1ccc(Cl)cc1Cl)n1nc(C(N)=O)c2ncc(N3CC([C@H]4CCCN(CCCC(=O)O)C4)C3)nc21 (single isomer, unassigned) [Example 33]
- IC50: < 100 nM

Molecule: C[C@H](c1ccc(Cl)cc1Cl)n1nc(C(F)(F)F)c2ncc(N3CC([C@@H]4CCCN(CCO)C4)C3)nc21 (single isomer, unassigned) [Example 44]
- IC50: 100 to 500 nM

Further lines, results first:

- IC50: < 100 nM
Molecule: COC(=O)NCCN1CCCC(C2CN(c3cnc4c(C(F)(F)F)nn([C@H](C)c5ccc(Cl)cc5Cl)c4n3)C2)C1 (mixture of isomers) [Example 49, Methyl (2-((R)-3-(1-(1-((R)-1-(2,4-dichlorophenyl)ethyl)-3-(trifluoromethyl)-1H-pyrazolo[3,4-b]pyrazin-6-yl)azetidin-3-yl)piperidin-1-yl)ethyl)carbamate and methyl (2-((S)-3-(1-(1-((R)-1-(2,4-dichlorophenyl)ethyl)-3-(trifluoromethyl)-1H-pyrazolo[3,4-b]pyrazin-6-yl)azetidin-3-yl)piperidin-1-yl)ethyl)carbamate]

- IC50: < 100 nM
Molecule: COC(=O)NCCN1CCC[C@@H](C2CN(c3cnc4c(C)nn([C@H](C)c5ccc(Cl)cc5Cl)c4n3)C2)C1 (single isomer, unassigned) [Example 85]

- IC50: 100 to 500 nM
Molecule: CNC(=O)CCCN1CCC[C@@H](C2CN(c3cnc4c(C#N)nn([C@H](C)c5ccc(Cl)cc5Cl)c4n3)C2)C1 (single isomer, unassigned) [Example 68]

- IC50: < 100 nM
Molecule: C[C@H](c1ccc(Cl)cc1Cl)n1nc(C#N)c2ncc(N3CC([C@H]4CCCN(CCCS(N)(=O)=O)C4)C3)nc21 (single isomer, unassigned) [Example 107]

- IC50: 100 to 500 nM
Molecule: CC(C)C(=O)NCCN1CCC[C@@H](C2CN(c3cnc4c(C(F)(F)F)nn([C@H](C)c5ccc(Cl)cc5Cl)c4n3)C2)C1 (single isomer, unassigned) [Example 51]

- IC50: < 100 nM
Molecule: C[C@H](c1ccc(Cl)cc1Cl)n1nc(C#N)c2ncc(N3CC(C4CCCN(CCCC(C)(C)O)C4)C3)nc21 (mixture of isomers) [Example 56, 1-((R)-1-(2,4-dichlorophenyl)ethyl)-6-(3-((S)-1-(4-hydroxy-4-methylpentyl)piperidin-3-yl)azetidin-1-yl)-1H-pyrazolo[3,4-b]pyrazine-3-carbonitrile and 1-((R)-1-(2,4-dichlorophenyl)ethyl)-6-(3-((R)-1-(4-hydroxy-4-methylpentyl)piperidin-3-yl)azetidin-1-yl)-1H-pyrazolo[3,4-b]pyrazine-3-carbonitrile]

- IC50: 100 to 500 nM
Molecule: C[C@H](c1ccc(Cl)cc1Cl)n1nc(C#N)c2ncc(N3CC([C@@H]4CCCN(CCCS(N)(=O)=O)C4)C3)nc21 (single isomer, unassigned) [Example 108]

- IC50: < 100 nM
Molecule: C[C@H](c1ccc(Cl)cc1Cl)n1nc(C#N)c2ncc(N3CC(C4CCCN(C5CCOCC5)C4)C3)nc21 (mixture of isomers) [Example 62, 1-((R)-1-(2,4-dichlorophenyl)ethyl)-6-(3-((R)-1-(tetrahydro-2H-pyran-4-yl)piperidin-3-yl)azetidin-1-yl)-1H-pyrazolo[3,4-b]pyrazine-3-carbonitrile and 1-((R)-1-(2,4-dichlorophenyl)ethyl)-6-(3-((S)-1-(tetrahydro-2H-pyran-4-yl)piperidin-3-yl)azetidin-1-yl)-1H-pyrazolo[3,4-b]pyrazine-3-carbonitrile]

- IC50: < 100 nM
Molecule: CC(C)C(=O)NCCN1CCC[C@H](C2CN(c3cnc4c(C(F)(F)F)nn([C@H](C)c5ccc(Cl)cc5Cl)c4n3)C2)C1 (single isomer, unassigned) [Example 89]

- IC50: < 100 nM
Molecule: CC(=O)NCCN1CCC[C@@H](C2CN(c3cnc4c(C)nn([C@H](C)c5ccc(Cl)cc5Cl)c4n3)C2)C1 (single isomer, unassigned) [Example 101]

- IC50: 100 to 500 nM
Molecule: CC(C)N1CCC[C@H](C2CN(c3cnc4c(C(F)(F)F)nn([C@H](C)c5ccc(Cl)cc5Cl)c4n3)C2)C1 [Example 102, 1-((R)-1-(2,4-dichlorophenyl)ethyl)-6-(3-((R)-1-isopropylpiperidin-3-yl)azetidin-1-yl)-3-(trifluoromethyl)-1H-pyrazolo[3,4-b]pyrazine]
